The target in series [1] is T1, soybean 15-LOX (Glycine max, UniProt P08170).
T1 sequence (P08170 1-839): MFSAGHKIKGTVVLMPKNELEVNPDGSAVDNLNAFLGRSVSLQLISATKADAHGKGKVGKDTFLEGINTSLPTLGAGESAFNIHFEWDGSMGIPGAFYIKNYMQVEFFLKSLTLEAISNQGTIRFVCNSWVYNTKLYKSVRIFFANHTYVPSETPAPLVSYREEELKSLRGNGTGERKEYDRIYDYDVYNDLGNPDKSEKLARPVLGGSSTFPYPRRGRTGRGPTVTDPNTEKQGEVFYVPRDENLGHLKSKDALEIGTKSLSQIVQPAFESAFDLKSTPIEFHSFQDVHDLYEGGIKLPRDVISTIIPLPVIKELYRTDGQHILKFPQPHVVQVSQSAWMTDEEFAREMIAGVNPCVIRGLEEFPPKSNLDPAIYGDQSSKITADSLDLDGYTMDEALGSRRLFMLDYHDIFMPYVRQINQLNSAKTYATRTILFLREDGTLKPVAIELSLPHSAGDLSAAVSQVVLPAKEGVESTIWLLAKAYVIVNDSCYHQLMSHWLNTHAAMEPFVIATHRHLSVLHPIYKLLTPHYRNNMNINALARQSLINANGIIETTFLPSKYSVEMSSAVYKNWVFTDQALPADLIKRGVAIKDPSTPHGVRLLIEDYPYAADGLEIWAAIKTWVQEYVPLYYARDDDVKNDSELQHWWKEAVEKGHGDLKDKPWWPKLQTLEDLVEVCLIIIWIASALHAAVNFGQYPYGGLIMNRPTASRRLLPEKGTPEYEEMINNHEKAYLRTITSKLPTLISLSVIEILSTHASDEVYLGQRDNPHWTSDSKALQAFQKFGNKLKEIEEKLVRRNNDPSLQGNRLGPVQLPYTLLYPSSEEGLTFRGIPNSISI
Description: 15-LOX inhibition assay. Type of series: biochemical. The conditions noted are these: for inhibition at 250 µM: read-out: 15-LOX assay Inhibition (%) at 0.25 mM; for 15-LOX assay Inhibition (%) at 0.25 mM / 15-LOX assay IC50 (μM) / IC50: Mean ± SEM, n = 3; for IC50: read-out: 15-LOX assay IC50.

For series [2], the system named is human blood mononuclear cells (MNCs). Kind of series: Cell viability assay. Conditions: MNCs; 0.25 mM; Mean ± SEM, n = 3. Type of series: cell-based.
The nature of series [3]: Cell viability assay. The conditions noted are these: human, human blood mononuclear cells (MNCs), pH 7.4. Type of series: cell-based, human.
Series [4] has as its system LOX. Conditions: LOX inhibition; cited from earlier work.

One may read the inhibition as the drop in the measured response relative to a control, in per cent. By IC50 is commonly meant the concentration that gives 50% inhibition. What is called viability is the share of living cells, or the viability signal relative to a control. High values mean less harm to the cells, low ones more harm to the cells.

Each structure is given as a SMILES string. Bounds are passed on as bounds.

For the compound `O=c1c(O)c(-c2ccc(O)c(O)c2)oc2cc(O)cc(O)c12` [Quercetin, reference compound], in series [1], the inhibition at 250 µM was 96.6 ± 1.24%.

As to `CCn1c(SC(C)C(=O)Nc2c(C)cccc2C)nnc1C1CCN(C(=O)Nc2ccccc2)CC1` (centres unmarked) [7k, 2-(5-(1-Phenylcarbamoylpiperdine-4-yl)-4-ethyl-4H-1,2,4-triazol-3-ylthio)-N-2,6-dimethylphenylpropanamide], the “MTT assay Cell viability (%) at 0.25 mM” value in series [2] stood at 75.67 ± 2.8%. Besides, in series [1], the “15-LOX assay Inhibition (%) at 0.25 mM” value is listed as 56.49 ± 1.59%, the “15-LOX assay IC50 (μM)” value is “inactive” and the 50% inhibitory concentration (IC50) is over 200 µM.

As for `O=P1(N(CCCl)CCCl)NCCCO1` (centres unmarked) [Cyclophosphamide, reference compound], the viability at 2 h, 0.25 mM in series [3] came out at 58.5 ± 2.6%.

For `O=c1cc(-c2ccccc2)oc2cc(O)c(O)c(O)c12` [Baicalein, reference compound], the inhibition at 250 µM in series [1] is 93.8 ± 1.27%.

Take `COc1cc(/C=C/C(=O)CC(=O)/C=C/c2ccc(O)c(OC)c2)ccc1O` [Curcumin, reference compound]: the viability at 2 h, 0.25 mM in series [3] stood at 71.8 ± 2.8%.

Take `Cc1ccc(NN=C2C(=N)N(c3ccc(S(N)(=O)=O)cc3)N=C2N)cc1` [ii, 4-{3-amino-4-[(4-methylphenyl)-hydrazono]-5-imino-4,5-dihydropyrazol-1-yl}-benzenesulfonamide]: in series [4], the half-maximal inhibitory concentration (IC50) was 1.92 ± 0.01 µM.

As for `COc1ccc(-c2csc3nc(-c4ccccc4)c(NC(C)(C)CC(C)(C)C)n23)cc1` [i, 3-(4-methoxyphenyl)-N-(2,4,4-trimethylpentane-2-yl)-6-phenylimidazo [2,1-b]thiazol-5-amine], in series [4], the IC50 was 11.5 ± 0.78 µM.

For the compound `CCn1c(SC(C)C(=O)Nc2cc(C)cc(C)c2)nnc1C1CCN(C(=O)Nc2ccccc2)CC1` (centres unmarked) [7m, 2-(5-(1-Phenylcarbamoylpiperdine-4-yl)-4-ethyl-4H-1,2,4-triazol-3-ylthio)-N-3,5-dimethylphenylpropanamide], the “MTT assay Cell viability (%) at 0.25 mM” value in series [2] amounted to 78.24 ± 2.7%. Also, in series [1], the “15-LOX assay Inhibition (%) at 0.25 mM” value amounted to 57.37 ± 1.46%, the “15-LOX assay IC50 (μM)” value is “inactive” and the 50% inhibitory concentration (IC50) was over 200 µM.

The record behind these values is article PMC11401107 (Heliyon, 2024).
